The subject of one assay is P-P70S6K (T389). Kind of assay: Cell based AlphaLISA assay, inhibition of P-P70S6K (T389) in MDA-MB-468 cells. The note with it: Homo sapiens, 4 h, 0.017-1,000 nM, two to four hours at 37° C., AlphaLisa SureFire Ultra, read-out: pIC50 for Inhibition of mTORC1 and mTORC2 Substrate Phosphorylation, p-P70S6K-(T389) (converted). Put shortly: (§1)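 mTORC1 and mTORC2 activity in cells tracked through AlphaLISA SureFire Ultra detection of the phosphoproteins after incubation and cell lysis; Alpha signal read in duplicate. IC50 from normalized concentration–response regression with control-based normalization.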
Background: In Alpha technology, singlet oxygen from a donor bead excites a nearby acceptor bead.

Another assay deals with P-Akt (S473). Kind of assay: Cell based AlphaLISA assay, inhibition of P-Akt (S473) in MDA-MB-468 cells. The note with it: Homo sapiens, 4 h, 0.017-1,000 nM, two to four hours at 37° C., AlphaLisa SureFire Ultra, read-out: pIC50 for Inhibition of mTORC1 and mTORC2 Substrate Phosphorylation, p-AKT1/2/3-(S473) (converted). Put shortly:
as §1

The subject of the next assay is P-4E-BP1 (T37/46). Kind of assay: Cell based AlphaLISA assay, inhibition of P-4E-BP1 (T37/46) in MDA-MB-468 cells. The following applies: Homo sapiens, 4 h, 0.017-1,000 nM, two to four hours at 37° C., AlphaLisa SureFire Ultra, read-out: pIC50 for Inhibition of mTORC1 and mTORC2 Substrate Phosphorylation, p-4E-BP1-(T37/46) (converted). Put shortly: as §1

Regarding `CO[C@H]1C[C@@H]2CC[C@@H](C)[C@@](O)(O2)C(=O)C(=O)N2CCCC[C@H]2C(=O)O[C@H]([C@H](C)C[C@@H]2CC[C@@H](O)[C@H](OC)C2)C[C@@H](O)[C@H](C)/C=C(\C)[C@@H](O)[C@@H](OC)C(=NOCC(=O)NCc2cnc(N3CCN(c4ncc(C(=O)NCCOCCC(=O)N5CCc6cc(Cn7nc(-c8ccc9oc(N)nc9c8)c8c(N)ncnc87)ccc6C5)c(N)n4)CC3)nc2)[C@H](C)C[C@H](C)/C=C/C=C/C=C/1C` [Example 50], the IC50 in the assay with P-P70S6K (T389) was 10 to 1000 nM; in the assay on P-Akt (S473) it was above 1000 nM; in the assay on P-4E-BP1 (T37/46) it was above 1000 nM.

For `CO[C@H]1C[C@@H]2CC[C@@H](C)[C@@](O)(O2)C(=O)C(=O)N2CCCC[C@H]2C(=O)O[C@H]([C@H](C)C[C@@H]2CC[C@@H](O)[C@H](OC)C2)C[C@@H](O)[C@H](C)/C=C(\C)[C@@H](O)[C@@H](OC)C(=NOCC(=O)NCc2cnc(N3CCN(c4ncc(C(=O)NCCOCCC(=O)NCCCCn5nc(-c6ccc7oc(N)nc7c6)c6c(N)ncnc65)c(N)n4)CC3)nc2)[C@H](C)C[C@H](C)/C=C/C=C/C=C/1C` [Example 51], the IC50 with P-P70S6K (T389) is 10 to 1000 nM; with P-Akt (S473), above 1000 nM; with P-4E-BP1 (T37/46) it was above 1000 nM.

With `CO[C@H]1C[C@@H]2CC[C@@H](C)[C@@](O)(O2)C(=O)C(=O)N2CCCC[C@H]2C(=O)O[C@H]([C@H](C)C[C@@H]2CC[C@@H](O)[C@H](OC)C2)C[C@@H](O)[C@H](C)/C=C(\C)[C@@H](O)[C@@H](OC)C(=NOCC(=O)NCc2cnc(N3CCC(N4CCC(C(=O)NCCOCCC(=O)N5CCc6cc(Cn7nc(-c8ccc9oc(N)nc9c8)c8c(N)ncnc87)ccc6C5)CC4)CC3)nc2)[C@H](C)C[C@H](C)/C=C/C=C/C=C/1C` [Example 52], the IC50 was 1 to 10 nM in the assay on P-P70S6K (T389), above 1000 nM in the assay on P-Akt (S473) and 3.16 to 31.6 nM with P-4E-BP1 (T37/46).

Regarding `CO[C@H]1C[C@@H]2CC[C@@H](C)[C@@](O)(O2)C(=O)C(=O)N2CCCC[C@H]2C(=O)O[C@H]([C@H](C)C[C@@H]2CC[C@@H](O)[C@H](OC)C2)C[C@@H](O)[C@H](C)/C=C(\C)[C@@H](O)[C@@H](OC)C(=NOCC(=O)NCc2cnc(N3CCN(C(=O)CCOCCN4CCN(c5ncc(C(=O)N6CCc7cc(Cn8nc(-c9ccc%10oc(N)nc%10c9)c9c(N)ncnc98)ccc7C6)cn5)CC4)[C@@H](C(=O)O)C3)nc2)[C@H](C)C[C@H](C)/C=C/C=C/C=C/1C` [Example 55], the IC50 with P-P70S6K (T389) is below 1 nM; with P-Akt (S473), above 1000 nM; in the assay with P-4E-BP1 (T37/46) it was 3.16 to 31.6 nM.

With `CO[C@H]1C[C@@H]2CC[C@@H](C)[C@@](O)(O2)C(=O)C(=O)N2CCCC[C@H]2C(=O)O[C@H]([C@H](C)C[C@@H]2CC[C@@H](O)[C@H](OC)C2)C[C@@H](O)[C@H](C)/C=C(\C)[C@@H](O)[C@@H](OC)C(=NOCC(=O)N2CCc3nc(N4CCN(C(=O)CCOCCN5CCN(c6ncc(C(=O)N7CCc8cc(Cn9nc(-c%10ccc%11oc(N)nc%11c%10)c%10c(N)ncnc%109)ccc8C7)cn6)CC5)CC4)ncc3C2)[C@H](C)C[C@H](C)/C=C/C=C/C=C/1C` [Example 57], the IC50 with P-P70S6K (T389) is below 1 nM; in the assay with P-Akt (S473) it was above 1000 nM; in the assay with P-4E-BP1 (T37/46), 3.16 to 31.6 nM.

On to `CO[C@H]1C[C@@H]2CC[C@@H](C)[C@@](O)(O2)C(=O)C(=O)N2CCCC[C@H]2C(=O)O[C@H]([C@H](C)C[C@@H]2CC[C@@H](O)[C@H](OC)C2)C[C@@H](O)[C@H](C)/C=C(\C)[C@@H](O)[C@@H](OC)C(=NOCC(=O)NCc2cnc(N3CCN(CCOCCN4CCN(c5ncc(C(=O)N6CCc7cc(Cn8nc(-c9ccc%10oc(N)nc%10c9)c9c(N)ncnc98)ccc7C6)cn5)CC4)CC3)nc2)[C@H](C)C[C@H](C)/C=C/C=C/C=C/1C` [Example 59], for which the results for the IC50 in the assay with P-P70S6K (T389), with P-Akt (S473) and in the assay with P-4E-BP1 (T37/46) were below 1 nM, above 1000 nM and 3.16 to 31.6 nM, respectively.

The values are drawn from patent publication US12187746B2, “C26-linked rapamycin analogs as mTOR inhibitors” (Revolution Medicines, Inc., priority 2018, dated 2025).
